Reference: patent US20230024096A1, “BIFUNCTIONAL COMPOUNDS FOR THE TREATMENT OF CANCER” (Hoffmann-La Roche Inc., priority 2019, published 2023)

Target: T1, SMARCA2 (Homo sapiens, UniProt P51531)
T1 construct: endogenous in cells; host or cells: HT1080 (CRISPR HiBiT knock-in clone, generated in house)
Experiment: SMARCA2 HiBiT degradation assay (cellular)
Format: cell-based
Settings: table head names A549; for DC50: 6 h incubation, HiBiT-tagged SMARCA2, luminescence read-out, read-out: HiBit A549 SMARCA2 IP (nM) 6 h; for Emax: A549, 6 h incubation, Emax = amount of residual protein remaining in the cell following compound treatment

T1 sequence (P51531 whole entry): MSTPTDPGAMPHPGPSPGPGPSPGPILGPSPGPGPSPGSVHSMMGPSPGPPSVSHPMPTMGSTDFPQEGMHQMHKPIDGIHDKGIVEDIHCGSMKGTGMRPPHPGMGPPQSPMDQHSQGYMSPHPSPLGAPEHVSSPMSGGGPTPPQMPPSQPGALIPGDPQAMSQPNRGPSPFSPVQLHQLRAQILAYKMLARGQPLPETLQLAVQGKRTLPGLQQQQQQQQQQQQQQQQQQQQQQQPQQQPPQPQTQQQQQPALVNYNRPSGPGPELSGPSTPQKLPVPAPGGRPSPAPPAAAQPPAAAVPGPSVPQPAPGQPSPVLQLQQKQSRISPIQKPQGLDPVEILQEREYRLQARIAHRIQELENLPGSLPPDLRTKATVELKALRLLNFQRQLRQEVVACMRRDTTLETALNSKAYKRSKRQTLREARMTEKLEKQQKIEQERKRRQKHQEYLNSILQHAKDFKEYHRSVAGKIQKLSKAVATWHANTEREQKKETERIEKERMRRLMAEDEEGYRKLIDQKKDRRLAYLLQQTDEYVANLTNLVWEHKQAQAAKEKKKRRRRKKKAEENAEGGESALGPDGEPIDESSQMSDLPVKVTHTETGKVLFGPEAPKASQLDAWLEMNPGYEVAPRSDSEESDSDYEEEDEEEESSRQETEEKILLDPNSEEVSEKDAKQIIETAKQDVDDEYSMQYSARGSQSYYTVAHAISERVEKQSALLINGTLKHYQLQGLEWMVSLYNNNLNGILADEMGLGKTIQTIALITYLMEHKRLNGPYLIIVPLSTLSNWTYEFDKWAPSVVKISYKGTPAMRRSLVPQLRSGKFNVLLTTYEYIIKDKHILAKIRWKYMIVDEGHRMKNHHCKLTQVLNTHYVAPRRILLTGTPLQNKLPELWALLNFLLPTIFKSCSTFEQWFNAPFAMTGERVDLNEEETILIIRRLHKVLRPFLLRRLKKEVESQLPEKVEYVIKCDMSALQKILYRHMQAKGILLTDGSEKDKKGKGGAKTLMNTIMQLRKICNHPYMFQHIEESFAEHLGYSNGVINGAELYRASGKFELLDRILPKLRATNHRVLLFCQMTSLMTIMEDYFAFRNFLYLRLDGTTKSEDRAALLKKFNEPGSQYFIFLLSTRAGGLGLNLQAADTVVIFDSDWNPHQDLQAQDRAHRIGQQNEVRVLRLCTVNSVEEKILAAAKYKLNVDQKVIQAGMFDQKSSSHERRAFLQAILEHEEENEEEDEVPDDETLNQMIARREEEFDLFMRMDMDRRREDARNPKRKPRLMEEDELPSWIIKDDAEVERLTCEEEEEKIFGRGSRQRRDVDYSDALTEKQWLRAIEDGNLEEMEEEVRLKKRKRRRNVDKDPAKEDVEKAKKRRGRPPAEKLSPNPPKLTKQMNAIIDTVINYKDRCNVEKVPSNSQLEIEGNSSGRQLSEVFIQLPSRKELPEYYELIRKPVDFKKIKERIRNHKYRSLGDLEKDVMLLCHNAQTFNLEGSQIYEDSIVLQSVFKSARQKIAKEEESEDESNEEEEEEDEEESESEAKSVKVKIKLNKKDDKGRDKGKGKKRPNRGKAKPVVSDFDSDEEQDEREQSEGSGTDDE

Row | Compound | DC50 [nM] | Emax [%]
1 | Nc1nnc(-c2ccccc2O)cc1N1CCC(C(=O)N2CC3(CCN(C(=O)COc4ccc5c(c4)C(=O)N(C4CCC(=O)NC4=O)C5=O)CC3)C2)(c2ccccc2)CC1 (centres unmarked) [Example 162, 5-(2-(2-(1-(3-amino-6-(2-hydroxyphenyl)pyridazin-4-yl)-4-phenylpiperidine-4-carbonyl)-2,7-diazaspiro[3.5]nonan-7-yl)-2-oxoethoxy)-2-(2,6-dioxopiperidin-3-yl)isoindoline-1,3-dione] | 299 | 57
2 | Nc1nnc(-c2ccccc2O)cc1N1CC2CCC(C1)N2c1cccc(OCCN2CCN(C(=O)CN3CCC(c4ccc(OC5CCC(=O)NC5=O)cc4)CC3)CC2)c1 (racemic) [Example 43, rac-3-[4-[1-[2-[4-[2-[3-[3-[3-amino-6-(2-hydroxyphenyl)pyridazin-4-yl]-3,8-diazabicyclo[3.2.1]octan-8-yl]phenoxy]ethyl]piperazin-1-yl]-2-oxo-ethyl]-4-piperidyl]phenoxy]piperidine-2,6-dione] | 32 | 31
3 | Nc1nnc(-c2ccccc2O)cc1N1CC2CCC(C1)N2c1cccc(OCCN2CCN(C(=O)CCC3CCN(c4ccc5c(c4)C(=O)N(C4CCC(=O)NC4=O)C5=O)CC3)CC2)c1 (racemic) [Example 14, rac-5-[4-[3-[4-[2-[3-[3-[3-amino-6-(2-hydroxyphenyl)pyridazin-4-yl]-3,8-diazabicyclo[3.2.1]octan-8-yl]phenoxy]ethyl]piperazin-1-yl]-3-oxo-propyl]-1-piperidyl]-2-(2,6-dioxo-3-piperidyl)isoindoline-1,3-dione] | 31 | 45
4 | Nc1nnc(-c2ccccc2O)cc1N1CC(Oc2cccc(C(=O)N3CCN(C(=O)CCCCCCNc4cccc5c4C(=O)N(C4CCC(=O)NC4=O)C5=O)CC3)c2)C1 (centres unmarked) [Example 145, 4-[[7-[4-[3-[1-[3-amino-6-(2-hydroxyphenyl)pyridazin-4-yl]azetidin-3-yl]oxybenzoyl]piperazin-1-yl]-7-oxo-heptyl]amino]-2-(2,6-dioxo-3-piperidyl)isoindoline-1,3-dione] | 928 | 69
5 | Nc1nnc(-c2ccccc2O)cc1N1CC2CCC(C1)N2c1cccc(OCCN2CCN(C(=O)N3CCC(Oc4ccc5c(c4)C(=O)N(C4CCC(=O)NC4=O)C5=O)CC3)CC2)c1 (racemic) [Example 40, rac-5-[[1-[4-[2-[3-[3-[3-amino-6-(2-hydroxyphenyl)pyridazin-4-yl]-3,8-diazabicyclo[3.2.1]octan-8-yl]phenoxy]ethyl]piperazine-1-carbonyl]-4-piperidyl]oxy]-2-(2,6-dioxo-3-piperidyl)isoindoline-1,3-dione] | 22 | 32
6 | Nc1nnc(-c2ccccc2O)cc1OC1CCCN(c2ccc(N3CCN(C(=O)CCCCCCCCCCn4cc(CNc5cccc6c5C(=O)N(C5CCC(=O)NC5=O)C6=O)nn4)CC3)cc2)C1 (centres unmarked) [Example 29, 4-[[1-[11-[4-[4-[3-[3-amino-6-(2-hydroxyphenyl)pyridazin-4-yl]oxy-1-piperidyl]phenyl]piperazin-1-yl]-11-oxo-undecyl]triazol-4-yl]methylamino]-2-(2,6-dioxo-3-piperidyl)isoindoline-1,3-dione] | 158 | 50
7 | Nc1nnc(-c2ccccc2O)cc1N1CC(Oc2cccc(N3CCN(C(=O)CN4CCC(c5ccc(NC6CCC(=O)NC6=O)cc5)CC4)CC3)c2)C1 (racemic) [Example 112, rac-3-[4-[1-[2-[4-[3-[1-[3-amino-6-(2-hydroxyphenyl)pyridazin-4-yl]azetidin-3-yl]oxyphenyl]piperazin-1-yl]-2-oxo-ethyl]-4-piperidyl]anilino]piperidine-2,6-dione] | 101 | 51
8 | Nc1nnc(-c2ccccc2O)cc1N1CCC(CNC(=O)C2CCN(c3ccc4c(c3)C(=O)N(C3CCC(=O)NC3=O)C4=O)CC2)(c2ccccc2)CC1 (centres unmarked) [Example 74, N-((1-(3-amino-6-(2-hydroxyphenyl)pyridazin-4-yl)-4-phenylpiperidin-4-yl)methyl)-1-(2-(2,6-dioxopiperidin-3-yl)-1,3-dioxoisoindolin-5-yl)piperidine-4-carboxamide] | 70 | 46
9 | Nc1nnc(-c2ccccc2O)cc1N1CC(Oc2ccc(C(=O)N3CCN(C(=O)CCCCCCCCCNc4cccc5c4C(=O)N(C4CCC(=O)NC4=O)C5=O)CC3)cc2)C1 (centres unmarked) [Example 150, 4-[[10-[4-[4-[1-[3-amino-6-(2-hydroxyphenyl)pyridazin-4-yl]azetidin-3-yl]oxybenzoyl]piperazin-1-yl]-10-oxo-decyl]amino]-2-(2,6-dioxo-3-piperidyl)isoindoline-1,3-dione] | 553 | 65
10 | Nc1nnc(-c2ccccc2O)cc1N1CC2CCC(C1)N2c1cccc(CN2CCN(C(=O)C3CN(c4ccc5c(c4)C(=O)N(C4CCC(=O)NC4=O)C5=O)C3)CC2)c1 (racemic) [Example 179, rac-5-[3-[4-[[3-[3-[3-amino-6-(2-hydroxyphenyl)pyridazin-4-yl]-3,8-diazabicyclo[3.2.1]octan-8-yl]phenyl]methyl]piperazine-1-carbonyl]azetidin-1-yl]-2-(2,6-dioxo-3-piperidyl)isoindoline-1,3-dione] | 100 | 39
11 | Nc1nnc(-c2ccccc2O)cc1N1CCC(C(=O)N2CC3(CN(C(=O)C4CCN(c5ccc6c(c5)C(=O)N(C5CCC(=O)NC5=O)C6=O)CC4)C3)C2)(c2ccccc2)CC1 (centres unmarked) [Example 121, 5-(4-(6-(1-(3-amino-6-(2-hydroxyphenyl)pyridazin-4-yl)-4-phenylpiperidine-4-carbonyl)-2,6-diazaspiro[3.3]heptane-2-carbonyl)piperidin-1-yl)-2-(2,6-dioxopiperidin-3-yl)isoindoline-1,3-dione] | 47 | 26
12 | Nc1nnc(-c2ccccc2O)cc1N1CC(Oc2ccc(C(=O)N3CCN(C(=O)C4CCN(c5ccc6c(c5)C(=O)N(C5CCC(=O)NC5=O)C6=O)CC4)CC3)c(Cl)c2)C1 (racemic) [Example 125, rac-5-[4-[4-[4-[1-[3-amino-6-(2-hydroxyphenyl)pyridazin-4-yl]azetidin-3-yl]oxy-2-chloro-benzoyl]piperazine-1-carbonyl]-1-piperidyl]-2-(2,6-dioxo-3-piperidyl)isoindoline-1,3-dione] | 30 | 42
13 | Nc1nnc(-c2ccccc2O)cc1N1CC2CCC(C1)N2c1cccc(OCCN2CCN(C(=O)CCC3CCN(c4cccc5c4C(=O)N(C4CCC(=O)NC4=O)C5=O)CC3)CC2)c1 (racemic) [Example 16, rac-4-[4-[3-[4-[2-[3-[3-[3-amino-6-(2-hydroxyphenyl)pyridazin-4-yl]-3,8-diazabicyclo[3.2.1]octan-8-yl]phenoxy]ethyl]piperazin-1-yl]-3-oxo-propyl]-1-piperidyl]-2-(2,6-dioxo-3-piperidyl)isoindoline-1,3-dione] | 46 | 50
14 | Nc1nnc(-c2ccccc2O)cc1O[C@@H]1CCCN(c2ccc(N3CCN(C(=O)CCCCCCCCn4cc(CNc5cccc6c5C(=O)N(C5CCC(=O)NC5=O)C6=O)nn4)CC3)cc2)C1 (mixture of isomers) [Example 62, 2-(2,6-dioxo-3-piperidyl)-4-[[1-[9-oxo-9-[4-[4-[rac-(3R)-3-[3-amino-6-(2-hydroxyphenyl)pyridazin-4-yl]oxy-1-piperidyl]phenyl]piperazin-1-yl]nonyl]triazol-4-yl]methylamino]isoindoline-1,3-dione] | 124 | 33
15 | Nc1nnc(-c2ccccc2O)cc1N1CCC(C(=O)NCC2CCN(C(=O)C3CCN(c4ccc5c(c4)C(=O)N(C4CCC(=O)NC4=O)C5=O)CC3)CC2)(c2ccccc2)CC1 (centres unmarked) [Example 86, 1-[3-amino-6-(2-hydroxyphenyl)pyridazin-4-yl]-N-[[1-[1-[2-(2,6-dioxo-3-piperidyl)-1,3-dioxo-isoindolin-5-yl]piperidine-4-carbonyl]-4-piperidyl]methyl]-4-phenyl-piperidine-4-carboxamide] | 59 | 37
16 | Nc1nnc(-c2ccccc2O)cc1N1CCN(c2ccccc2)C(C(=O)NC2CCN(C(=O)CCC3CCN(c4ccc5c(c4)C(=O)N(C4CCC(=O)NC4=O)C5=O)CC3)CC2)C1 (centres unmarked) [Example 54, 4-[3-amino-6-(2-hydroxyphenyl)pyridazin-4-yl]-N-[1-[3-[1-[2-(2,6-dioxo-3-piperidyl)-1,3-dioxo-isoindolin-5-yl]-4-piperidyl]propanoyl]-4-piperidyl]-1-phenyl-piperazine-2-carboxamide] | 42 | 63
17 | Nc1nnc(-c2ccccc2O)cc1N1CCC(NC(=O)CCCN2CCC(c3ccc(OC4CCC(=O)NC4=O)cc3)CC2)(c2ccccc2)CC1 (centres unmarked) [Example 151, N-[1-[3-amino-6-(2-hydroxyphenyl)pyridazin-4-yl]-4-phenyl-4-piperidyl]-4-[4-[4-[(2,6-dioxo-3-piperidyl)oxy]phenyl]-1-piperidyl]butanamide] | 855 | 54
18 | Nc1nnc(-c2ccccc2O)cc1N1CCC(C(=O)NCC2CCN(C(=O)CCCN3CCC(c4ccc(NC5CCC(=O)NC5=O)cc4)CC3)CC2)(c2ccccc2)CC1 (centres unmarked) [Example 105, 1-(3-amino-6-(2-hydroxyphenyl)pyridazin-4-yl)-N-((1-(4-(4-(4-((2,6-dioxopiperidin-3-yl)amino)phenyl)piperidin-1-yl)butanoyl)piperidin-4-yl)methyl)-4-phenylpiperidine-4-carboxamide] | 100 | 33
19 | Nc1nnc(-c2ccccc2O)cc1N1CC2CCC(C1)N2c1cccc(OCCN2CCN(C(=O)C3CN(c4ccc5c(c4)C(=O)N(C4CCC(=O)NC4=O)C5=O)C3)CC2)c1 (racemic) [Example 60, rac-5-[3-[4-[2-[3-[3-[3-amino-6-(2-hydroxyphenyl)pyridazin-4-yl]-3,8-diazabicyclo[3.2.1]octan-8-yl]phenoxy]ethyl]piperazine-1-carbonyl]azetidin-1-yl]-2-(2,6-dioxo-3-piperidyl)isoindoline-1,3-dione] | 18 | 32
